No end group written: not given here. HA = not defined here
Columns and labels:
[1] = system: MDA-MB-468 cells; experiment: MTT cell viability/growth inhibition, MDA-MB-468; type: cell-based, human; details: for cell viability: 10 μM, MDA-MB-468, MTT, mean of three independent experiments; for growth inhibition of EGFP-CARP-1 / EGFP-H2AX (1–35)-expressing cells: MDA-MB-468 sublines vs EGFP-expressing counterparts
Description: (§1) Routine maintenance and culture of MDA-MB-468 (lacking estrogen receptor; ER and having mutant p53) human triple-negative breast cancer (TNBC) cells, human cervical cancer HeLa, human kidney cancer UOK 262, non-small-cell lung cancer H1975, and HCC827 cells was carried out essentially as described previously. Generation and characterization of MDA-MB-468 cells expressing reduced CARP-1 was described previously. The stable sublines were generated by transfecting the MDA-MB-468 and Hela cells with the pcDNA3 vector, pcDNA3-CARP-1 wild-type (WT)-myc-His clone 6.1.2, pcDNA3-CARP-1(Δ600–650)-myc-His, pcDNA3-EGFP, pcDNA3-EGFP-H2AX (1–35), or pcDNA3-EGFP-CARP-1 (636–650) plasmids, followed by selection in the presence of 800 μg/mL neomycin using described methods. The cell lysates from wild-type, untransfected cells, neomycin-resistant pools, or individual sublines were then subjected to MTT-based viability, confocal, immunoprecipitation (IP), and Western blot (WB) analyses as below.
(§2) The cell growth inhibition was assessed using an MTT assay following the established protocols described by us previously.
(§3) Here, we utilized human TNBC MDA-MB-468 and human cervical cancer HeLa cells to conduct an MTT-based dose-response analysis using Adriamycin and CFM compounds. […] Since Adriamycin, CFM-4, and CFM-4.16 have molecular masses of 543.3, 404.9, and 440.3, respectively, we chose to use an equimolar dose of each compound in the MTT assays. […] Prior reports established that phosphorylation of H2AX at serine 139 (γ-H2AX) is involved in DNA damage repair and apoptotic signaling by ATM/ATR and JNKs, respectively. Next, the MDA-MB-468, HeLa, and the kidney cancer UOK 262 cells were treated with a 10 μM dose of the CFM-4.16 or Adriamycin for various time periods. The cell lysates from the control, untreated, and treated cells were analyzed by WB for expression of CARP-1, phospho-JNK1/2, phospho-H2AX, and poly ADP ribose polymerase (PARP) proteins. […] The H2AX activation is also indicative of DNA damage and involves pro-apoptotic JNKs. Our data in Figure 1C and Figure S1B,C (Supplementary Materials) also show activation of JNKs; however, a robust JNK activation is co-incident with H2AX phosphorylation following treatments with Adriamycin or CFM-4.16.
Figure 7 Disruption of H2AX interaction with CARP-1 results in enhanced viabilities of CFM-4-, CFM-4.16-, or Adriamycin-treated cells in part due to reduced apoptosis. (A,C,D) Indicated MDA-MB-468 cell lines were treated with DMSO (Control), or with the noted dose and time of Adriamycin, CFM-4, or CFM-4.16 compounds. Determination of viable/live cells was carried out by MTT assay as described in Section 2. (B,E,F) Cell lysates derived from vehicle DMSO (Control), or CFM-4-, CFM-4.16-, or Adriamycin-treated cells were added to the wells that had immobilized fluorogenic substrates of noted caspases. The fluorescence released from the activated caspase-dependent cleavage of respective substrate was detected by a plate reader at the excitation and emission wavelengths of 380 nm and 460 nm, respectively, as detailed in Section 2. The columns in bar charts in panels A, C, D and B, […] represent means of three and two independent experiments, respectively; bars, SE. For panels C and D, * p < 0.05, **p < 0.01 and *** p ≤ 0.001 relative to the respective EGFP vector subline. For panels E and F, *** p ≤ 0.05 relative to the respective EGFP vector subline.
Figure 8 Ectopic expression of TAT-CARP-1 (636–650) peptide results in enhanced viabilities of Adriamycin-treated cells. MDA-MB-468 (A) or HeLa (B) cells were pre-incubated with 300 μg/mL indicated peptides for 72 h, followed by treatments with the noted dose and time of Adriamycin. Determination of viable/live cells was carried out using an MTT assay as described in Section 2. […]

[2] = system: HeLa cells; experiment: MTT cell viability/growth inhibition, HeLa; type: cell-based, human; details: for cell viability: 10 μM, HeLa, mean of three independent experiments; for growth inhibition of EGFP-CARP-1 / EGFP-H2AX (1–35)-expressing cells: HeLa sublines vs EGFP-expressing counterparts
Description: as §1, §2, §3
Figure 8 Ectopic expression of TAT-CARP-1 (636–650) peptide results in enhanced viabilities of Adriamycin-treated cells. MDA-MB-468 (A) or HeLa (B) cells were pre-incubated with 300 μg/mL indicated peptides for 72 h, followed by treatments with the noted dose and time of Adriamycin. Determination of viable/live cells was carried out using an MTT assay as described in Section 2. The bar charts in panels A and B represent means of three and two independent experiments, respectively; bars, SE. (C) Indicated cells were either pre-incubated with 6 μg/mL indicated peptides for 72 h or not (Control), followed by treatments with Adriamycin as noted. Cells were then processed for immunofluorescence staining for TAT-CARP-1 peptide (red), γH2AX (green), and DAPI (blue) as detailed in Section 2 and Figure S3 (Supplementary Materials). Insets in C show enlarged areas of respective photomicrographs to indicate presence of TAT-CARP-1 peptide and γH2AX in respective columns. The insets in the top and middle rows of the merge column show co-localization of TAT-CARP-1 peptide, and γH2AX (magnification: 250×).
Figure S7. Disruption of H2AX interaction with CARP-1 results in enhanced viabilities of CFM-4, CFM-4.16, or Adriamycin-treated cells in part due to reduced γH2AX and apoptosis. (A,B,C) Indicated HeLa cell lines were treated with DMSO (Control), noted dose and time of Adriamycin, CFM-4, or CFM-4.16 compounds. Determination of viable/live cells was carried out by MTT assay as in methods. The columns in bar charts in panels A, B, C represent means of three independent […]
experiments; bars, SE. […]

Compound	cell-growth inhibition ([1]; 10 μM dose, MDA-MB-468, MTT dose-response, Figure S1A)	cell viability [1]	growth inhibition of CARP-1 (Δ600–650)-expressing cells ([1]; MDA-MB-468 CARP-1 (Δ600–650) vs WT CARP-1-expressing counterparts, MTT, mean of three experiments)	growth inhibition of EGFP-CARP-1 / EGFP-H2AX (1–35)-expressing cells ([1]; MTT, mean of three experiments)	cell viability [2]	growth inhibition of CARP-1 (Δ600–650)-expressing cells ([2]; HeLa CARP-1 (Δ600–650) vs WT CARP-1-expressing counterparts, mean of three experiments)	growth inhibition of EGFP-CARP-1 / EGFP-H2AX (1–35)-expressing cells ([2]; mean of three experiments)	viability of Adriamycin-treated cells ([1]; MDA-MB-468 pre-incubated with 300 μg/mL peptide, 72 h, then Adriamycin, vs EGFP, MTT, mean of three experiments)	abrogation of Adriamycin-induced growth inhibition ([1]; cancer cells, abstract)	viability of Adriamycin-treated cells ([2]; HeLa pre-incubated with 300 μg/mL peptide, 72 h, then Adriamycin, vs EGFP, mean of two experiments)
COc1cccc2c1C(=O)c1c(O)c3c(c(O)c1C2=O)C[C@@](O)(C(=O)CO)C[C@@H]3O[C@H]1C[C@H](N)[C@H](O)[C@H](C)O1 [Adriamycin, doxorubicin, reference compound]	robust cell-growth inhibition	inhibited viabilities of both the cell lines in a time-dependent manner	resistant to inhibition by CFM-4 or ADR	resistant to inhibition by CFM-4.16 or ADR	inhibited viabilities of both the cell lines in a time-dependent manner	resistant to inhibition by CFM-4 or ADR	resistant to inhibition by CFM-4.16 or ADR			
O=C1N(Cc2ccccc2Cl)c2ccccc2C12NN=C(c1cccc(Cl)c1)S2 (stereo not drawn) [CFM-4.16]		inhibited viabilities of both the cell lines in a time-dependent manner		resistant to inhibition by CFM-4.16 or ADR	inhibited viabilities of both the cell lines in a time-dependent manner		resistant to inhibition by CFM-4.16 or ADR			
EGFP-CARP-1 (636–650): EGFP-tagged fusion protein stably expressed in MDA-MB-468 and HeLa sublines (PKTMKVNDLRKELES; also: EGFP fusion kept, end not given here)				resistant to inhibition by CFM-4.16 or ADR			resistant to inhibition by CFM-4.16 or ADR			
EGFP-H2AX (1–35): EGFP-tagged fusion protein stably expressed in MDA-MB-468 and HeLa sublines (MSGRGKTGGKARAKAKSRSSRAGLQFPVGRVHRLL; also: EGFP fusion, end not given here; UniProt P16104 1-35, looked up, fragment)				resistant to inhibition by CFM-4.16 or ADR			resistant to inhibition by CFM-4.16 or ADR			
His-TAT-HA-CARP-1 (636–650): His-TAT-HA-tagged CARP-1 (636–650) peptide, >95% purity, commercially synthesized ({His-TAT-HA}-PKTMKVNDLRKELES; reading uncertain; UniProt Q8IX12 636-650, looked up, fragment)								moderate, statistically significant increase in viabilities	moderate, statistically significant abrogation of Adriamycin-induced growth inhibition	moderate, statistically significant increase in viabilities

Source: publication PMC6406907, “A H2AX–CARP-1 Interaction Regulates Apoptosis Signaling Following DNA Damage” (Cancers, 2019)
